Some results are limits rather than exact numbers.

This is an account of results in a melting point compilation (Tetko et al.; mined from patent text by program, amines drawn as free bases though some values may be those of a salt).

Broadly, the melting point is the temperature of the solid-liquid transition. `O=C(O)C1=Cc2cc(Cl)c(Oc3ccc(Cl)cc3Br)cc2OC1C(F)(F)F` (centres undefined) yielded a melting point of 224 to 226 °C.
The molecule `CC(C)[C@H](NC(=O)OCc1ccccc1)C(=O)NC(Cc1ccccc1)C(O)C(Cc1ccccc1)NC(=O)[C@@H](NC(=O)OCc1ccccn1)C(C)C` (some centres undefined) had a melting point of 194 to 195 °C.
The same measure for `CCCCc1nc2ccc(C)c(C(=O)OCC)c2n1Cc1ccc(-c2ccccc2-c2nnn[nH]2)cc1`: 164 to 165 °C; for `COc1ccc(-n2cccc2-c2ccc(S(N)(=O)=O)cc2)cc1`: 112 to 114 °C; for `C=CCN(C(C)=O)c1cccc(-c2ccc3nnc(C)n3n2)c1`: 114 to 115 °C.
`COc1ccc(C(CCCCC(=O)O)C2=CC(=O)c3ccccc3C2=O)cc1` (centres undefined): the melting point lay within 141 to 143 °C.
Regarding `COc1cc(Cn2cnc3cccnc32)ccc1C(=O)N(C1CCCC1)C1CC(C)CC(C)C1` (centres undefined), the melting point is 80 to 82 °C.
For the molecule `Cc1ccc(-c2nccc3c(CC#N)cccc23)cc1`, the melting point came out at 102 °C.
The same measure for `N#CCCNC(=O)c1cccc(-c2cc3c(ccn3Cc3ccc(Cl)cc3Cl)cn2)c1`: 199 to 200 °C; for `CCOC(=O)COc1ccc([N+](=O)[O-])c(C=C2NC(=O)NC2=O)c1`: 268 to 270 °C.
Consider `FCc1cccc(C#CCCc2cnc3cc(F)c(F)cc3n2)n1`, for which the melting point was in the range of 135 to 138 °C.
Turning to `CCC(=O)N(c1ccc(C#N)cc1)c1c(NC(C)C(C)(C)C)c(=O)c1=O` (centres undefined), the melting point lay in the range of 211 to 214 °C.
The same measure for `Cc1nc(-c2ccc(C(F)(F)F)cc2)ccc1CO`: 76 to 78 °C.
Regarding `CCN1CCCCC1CCc1ccccc1NC(=O)C=Cc1ccccc1` (centres undefined), the melting point fell in the range of 120 to 122 °C.
With `CCc1nn2c(-c3ccc(Cl)cc3Cl)cccc2c1N(CC)CC`, the melting point lay in the range of 118 to 121 °C.
`Cc1cc(C(=O)NCO)ncc1C(c1c(F)ccc(F)c1F)S(=O)(=O)CCC(F)(F)C(F)(F)F` (centres undefined) came in with a melting point of 126 to 128 °C.
Turning to `COC(=O)CCCCC(=O)c1cccc(F)c1O`, the melting point was in the range of 59 to 60 °C.
The molecule `COc1ccc2c(c1)C(=O)c1ccc(C3=NCCN3)cc1S2(=O)=O` displayed a melting point of 220 to 224 °C.
The same measure for `Nc1nc2cc[nH]c2c(=O)[nH]1`: above 300 °C; for `CCOC(=O)c1c(C)nc2c(nc(C)n2C)c1Cl`: 73 to 75 °C; for `CCOC(=O)CCc1cc(O)nn1Cc1ccccc1`: 128 to 129 °C.
The value for `C[C@@](O)(C(=O)Nc1ccc(S(=O)(=O)c2ccc(F)cc2)cc1Cl)C(F)(F)F` was 131 to 133 °C; that for `CCOC(=O)c1cn(-c2cnc(Cl)c(N)c2)c2c(Cl)c(F)c(F)cc2c1=O` was 233 to 236 °C.
For the molecule `Cc1ccc(-c2coc3c(C)c(C)cc(C)c23)cc1`, the melting point was 112 to 113 °C.
`CCCC(=O)OC1c2ccccc2C(=O)N1c1ccc2ccc(Cl)nc2n1` (centres undefined) registered a melting point of 140 °C.
In turn, `CCCCc1nc2ccccc2n1Cc1ccc(C(=O)O)c(C)c1` displayed a melting point of 191 to 192 °C.
Take `NC(=O)C1CCc2[nH]c3cc(Cl)c(F)cc3c2C1` (centres undefined): the melting point is 245 to 246 °C.
The same measure for `CCn1cc(C(=O)O)c(=O)c2cc(F)c(-c3ccnc(CNC(=O)OCc4ccccc4)n3)c(F)c21`: 195 to 196 °C; for `COc1cc(CCl)ccc1OCc1coc(-c2ccco2)n1`: 123 to 124 °C.
The molecule `O=C(CC1CCCC1)Nc1ccc2c(c1)C(=O)CCC2` returned a melting point of 117 to 118 °C.
`CC(C)(C)C(=O)Oc1cc(-c2oc3ccccc3c(=O)c2C(=O)N2CCN(c3ccccn3)CC2)cc(OC(=O)C(C)(C)C)c1OC(=O)C(C)(C)C` showed a melting point of 120 to 125 °C.
On to `COc1cccc2c(=O)c3c(OCC4CS4)cc(OCC4CS4)cc3oc12` (centres undefined), for which the melting point is 240 °C.
In turn, `O=S(=O)(O)c1cc(O)ccc1O` gave a melting point of 164 to 167 °C.
In turn, `CCC(=O)C(CCCCCl)NC(=O)c1ccc(C)cc1` (centres undefined) had a melting point of 85 to 86 °C.
